Source: ChEMBL document CHEMBL5038624, “Construction and activity evaluation of novel dual-target (SE/CYP51) anti-fungal agents containing amide naphthyl structure” (Eur J Med Chem, 2022)
In brackets after ≈: the same amount, converted by molar mass. Values belong to the molecule of their own block, whether it stands above or below them. Activity calls are given as the source filed them. No cut-off for these calls is given here.

What was measured:
Candida albicans [1] = assay: Antifungal activity against Candida albicans SC5314 assessed as reduction in fungal growth incubated for 72 hrs by CLSI protocol based broth microdilution method; format: functional
Aspergillus fumigatus = assay: Antifungal activity against Aspergillus fumigatus KM8001 assessed as reduction in fungal growth incubated for 72 hrs by CLSI protocol based broth microdilution method; format: functional
Candida tropicalis = assay: Antifungal activity against Candida tropicalis ATCC 1369 assessed as reduction in fungal growth incubated for 72 hrs by CLSI protocol based broth microdilution method; format: functional
Pichia kudriavzevii = assay: Antifungal activity against Candida krusei ATCC 6258 assessed as reduction in fungal growth incubated for 72 hrs by CLSI protocol based broth microdilution method; format: functional
Nakaseomyces glabratus = assay: Antifungal activity against Candida glabrata ATCC 0001 assessed as reduction in fungal growth incubated for 72 hrs by CLSI protocol based broth microdilution method; format: functional
Candida albicans [2] = assay: Antifungal activity against Candida albicans strain 17 assessed as reduction in fungal growth incubated for 72 hrs by CLSI protocol based broth microdilution method; format: functional
Candida albicans [3] = assay: Induction of apoptosis against Candida albicans ATCC SC5314 assessed as mild apoptotic cells measured after 48 hrs by Annexin V-FITC/propidium iodide staining based flow cytometry (Rvb =0.29 %); format: functional
[4] = Toxicity in mouse assessed as effect on alanine transaminase level; settings: in vivo
Candida albicans [5] = assay: Antifungal activity against Candida albicans strain CaR assessed as reduction in fungal growth incubated for 72 hrs by CLSI protocol based broth microdilution method; format: functional
[6] = Toxicity in mouse infected with Candida albicans ATCC SC5314 assessed as effect on heart at 4 mg/kg,ip administrated every 2 days for 14 days by hematoxylin-eosin staining based assay; format: organism-based; settings: in vivo, 336 h, time 14 day
Candida albicans [7] = assay: Inhibition of SE/CYP51 in Candida albicans ATCC SC5314 assessed as eburicol level incubated for 48 hrs by LC/MS analysis; parameters: scale not given: the % may be the effect or the level left
Candida albicans [8] = assay: Inhibition of SE/CYP51 in Candida albicans ATCC SC5314 assessed as ergosterol level incubated for 48 hrs by LC/MS analysis; parameters: scale not given: the % may be the effect or the level left
Candida albicans [9] = assay: Antifungal activity against Candida albicans strain 632 assessed as reduction in fungal growth incubated for 72 hrs by CLSI protocol based broth microdilution method; format: functional
[10] = biological target: Lanosterol 14-alpha demethylase (Candida albicans (strain SC5314 / ATCC MYA-2876) (Yeast), UniProt P10613); assay: Inhibition of CYP51 in Candida albicans ATCC SC5314 measured after 30 mins by HPLC analysis
Sequence of Lanosterol 14-alpha demethylase (P10613 whole entry): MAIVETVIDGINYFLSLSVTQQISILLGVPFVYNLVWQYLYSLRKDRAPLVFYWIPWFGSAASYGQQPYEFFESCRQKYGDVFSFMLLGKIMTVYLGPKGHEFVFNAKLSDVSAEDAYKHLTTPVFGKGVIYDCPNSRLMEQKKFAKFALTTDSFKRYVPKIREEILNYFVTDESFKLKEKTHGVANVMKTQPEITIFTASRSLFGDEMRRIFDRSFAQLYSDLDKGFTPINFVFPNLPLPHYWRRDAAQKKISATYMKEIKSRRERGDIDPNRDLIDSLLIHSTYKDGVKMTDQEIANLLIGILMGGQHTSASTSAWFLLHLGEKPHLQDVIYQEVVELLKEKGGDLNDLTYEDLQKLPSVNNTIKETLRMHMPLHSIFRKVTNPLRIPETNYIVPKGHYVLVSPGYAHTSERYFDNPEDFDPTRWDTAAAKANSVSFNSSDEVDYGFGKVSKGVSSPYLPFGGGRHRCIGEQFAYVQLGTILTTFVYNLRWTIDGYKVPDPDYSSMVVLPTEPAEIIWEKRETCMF

Candida albicans [11] = assay: Inhibition of SE/CYP51 in Candida albicans ATCC SC5314 assessed as squalene level incubated for 48 hrs by LC/MS analysis; parameters: scale not given: the % may be the effect or the level left
Candida albicans [12] = assay: Antifungal activity against Candida albicans ATCC SC5314 infected in mouse assessed as reduction on endothelial fungal infection at 4 mg/kg,ip administrated every 2 days for 14 days by hematoxylin-eosin staining based assay; format: functional, organism-based; settings: time 14.0 day
[13] = Inhibition of SE in Candida albicans ATCC SC5314 measured after 30 mins by HPLC analysis
Candida albicans [14] = assay: Antifungal activity against Candida albicans strain 904 assessed as reduction in fungal growth incubated for 72 hrs by CLSI protocol based broth microdilution method; format: functional
Candida albicans [15] = assay: Antifungal activity against Candida albicans ATCC SC5314 assessed as decrease in fungal cell density by fluorescence microscopy; format: functional, organism-based
[16] = Toxicity in mouse infected with Candida albicans ATCC SC5314 assessed as effect on kidney at 4 mg/kg,ip administrated every 2 days for 14 days by hematoxylin-eosin staining based assay; format: organism-based; settings: in vivo, 336 h, time 14 day
Candida albicans [17] = assay: Induction of apoptosis against Candida albicans ATCC SC5314 assessed as necrotic cells measured after 48 hrs by Annexin V-FITC/propidium iodide staining based flow cytometry (reference value: 18.22 %); format: functional
Candida albicans [18] = assay: Inhibition of SE/CYP51 in Candida albicans ATCC SC5314 assessed as lanosterol level incubated for 48 hrs by LC/MS analysis; parameters: scale not given: the % may be the effect or the level left
Candida albicans [19] = assay: Antifungal activity against Candida albicans ATCC SC5314 infected in mouse assessed as decrease in fungal infection at 4 mg/kg,ip administrated every 2 days for 14 days; format: functional, organism-based; settings: time 14.0 day
Candida albicans [20] = assay: Induction of apoptosis against Candida albicans ATCC SC5314 assessed as viable cells measured after 48 hrs by Annexin V-FITC/propidium iodide staining based flow cytometry (reference value: 80.78 %); format: functional
Mus musculus = assay: Antifungal activity against Candida albicans ATCC SC5314 infected in mouse assessed as increase in body weight at 4 mg/kg,ip administrated every 2 days for 14 days; format: functional, organism-based; settings: time 14.0 day
Candida albicans [21] = assay: Induction of apoptosis against Candida albicans ATCC SC5314 assessed as late apoptotic cells measured after 48 hrs by Annexin V-FITC/propidium iodide staining based flow cytometry (reference value: 0.71 %); format: functional
[22] = Toxicity in mouse infected with Candida albicans ATCC SC5314 assessed as effect on lung at 4 mg/kg,ip administrated every 2 days for 14 days by hematoxylin-eosin staining based assay; format: organism-based; settings: in vivo, 336 h, time 14 day
[23] = Toxicity in mouse assessed as effect on aspartate transaminase level; settings: in vivo
[24] = Toxicity in mouse infected with Candida albicans ATCC SC5314 assessed as effect on liver at 4 mg/kg,ip administrated every 2 days for 14 days by hematoxylin-eosin staining based assay; format: organism-based; settings: in vivo, 336 h, time 14 day
Candida albicans [25] = assay: Antifungal activity against Candida albicans strain 901 assessed as reduction in fungal growth incubated for 72 hrs by CLSI protocol based broth microdilution method; format: functional
[26] = Toxicity in mouse infected with Candida albicans ATCC SC5314 assessed as effect on spleen at 4 mg/kg,ip administrated every 2 days for 14 days by hematoxylin-eosin staining based assay; format: organism-based; settings: in vivo, 336 h, time 14 day
[27] = Toxicity in mouse assessed as effect on blood urea nitrogen level; settings: in vivo
Candida albicans [28] = assay: Inhibition of SE/CYP51 in Candida albicans ATCC SC5314 assessed as unknown sterol level incubated for 48 hrs by LC/MS analysis; parameters: scale not given: the % may be the effect or the level left

Compound: O=C(/C=C/c1ccc2ccccc2c1)NC(Cn1ccnc1)c1ccccc1 (stereo not given)
MIC50 (Candida albicans [1]): 0.5 µg/mL (≈ 1.36 µM)
MIC50 (Aspergillus fumigatus): 4 µg/mL (≈ 10.9 µM)
MIC50 (Candida tropicalis): 0.5 µg/mL (≈ 1.36 µM)
MIC50 (Pichia kudriavzevii): 1 µg/mL (≈ 2.72 µM)
MIC50 (Nakaseomyces glabratus): 0.5 µg/mL (≈ 1.36 µM)

Compound: O=C(/C=C/c1ccc2ccccc2c1)NC(C(=O)NCc1cccnc1)c1ccccc1 (stereo not given)
MIC50 (Candida albicans [1]): 2 µg/mL (≈ 4.74 µM)
MIC50 (Aspergillus fumigatus): > 8 µg/mL
MIC50 (Candida tropicalis): 2 µg/mL (≈ 4.74 µM)
MIC50 (Pichia kudriavzevii): 1 µg/mL (≈ 2.37 µM)
MIC50 (Nakaseomyces glabratus): 0.5 µg/mL (≈ 1.19 µM)

Compound: NC(=O)/C=C/c1cccc2ccccc12
MIC50 (Candida albicans [1]): 32 µg/mL (≈ 162 µM)

Compound: O=C(/C=C/c1cccc2ccccc12)NCc1ccccc1
MIC50 (Candida albicans [1]): 8 µg/mL (≈ 27.8 µM)

The next molecules have a lower MIC50 (Candida albicans [1]) than those just listed; values first:

MIC50 (Candida albicans [1]): 0.25 µg/mL (≈ 0.679 µM)
MIC50 (Aspergillus fumigatus): > 8 µg/mL
MIC50 (Candida tropicalis): 0.25 µg/mL (≈ 0.679 µM)
MIC50 (Pichia kudriavzevii): 0.5 µg/mL (≈ 1.36 µM)
MIC50 (Nakaseomyces glabratus): 0.5 µg/mL (≈ 1.36 µM)
Compound: O=C(/C=C/c1ccc2ccccc2c1)NC(Cn1cncn1)c1ccccc1 (stereo not given)

MIC50 (Candida albicans [1]): 0.25 µg/mL (≈ 0.632 µM)
MIC50 (Aspergillus fumigatus): > 8 µg/mL
MIC50 (Candida tropicalis): 0.5 µg/mL (≈ 1.26 µM)
MIC50 (Pichia kudriavzevii): 1 µg/mL (≈ 2.53 µM)
MIC50 (Nakaseomyces glabratus): 0.5 µg/mL (≈ 1.26 µM)
Compound: O=C(/C=C/c1cccc2ccccc12)NC(Cn1ccnc1)C(=O)c1ccccc1 (stereo not given)

MIC50 (Candida albicans [2]): 4 µg/mL (≈ 10.1 µM)
MIC50 (Candida albicans [1]): 0.125 µg/mL (≈ 0.315 µM)
MIC50 (Candida albicans [5]): 2 µg/mL (≈ 5.04 µM)
Activity (Candida albicans [7]): 34.7%
Activity (Candida albicans [8]): 16.4%
MIC50 (Candida albicans [9]): 2 µg/mL (≈ 5.04 µM)
IC50 [10]: 323 nM
Activity (Candida albicans [11]): 28.9%
IC50 [13]: 650 nM
MIC50 (Candida albicans [14]): 4 µg/mL (≈ 10.1 µM)
Activity (Candida albicans [18]): 13.6%
MIC50 (Aspergillus fumigatus): 2 µg/mL (≈ 5.04 µM)
MIC50 (Candida tropicalis): 0.25 µg/mL (≈ 0.631 µM)
MIC50 (Pichia kudriavzevii): 0.5 µg/mL (≈ 1.26 µM)
MIC50 (Candida albicans [25]): 4 µg/mL (≈ 10.1 µM)
Activity (Candida albicans [28]): 6.4%
MIC50 (Nakaseomyces glabratus): 0.125 µg/mL (≈ 0.315 µM)
Compound: O=C(/C=C/c1ccc2ccccc2c1)NC(Cn1cncn1)C(=O)c1ccccc1 (stereo not given)
Activity (Candida albicans [3]): 0.36%
Activity [4]: 96.5 IU/L
Activity [6]: Non-Toxic
Activity (Candida albicans [12]): Active
Activity (Candida albicans [15]): Active
Activity [16]: Non-Toxic
Activity (Candida albicans [17]): 43.87%
Activity (Candida albicans [19]): Active
Activity (Candida albicans [20]): 54.66%
Activity (Mus musculus): Active
Activity (Candida albicans [21]): 1.11%
Activity [22]: Non-Toxic
Activity [23]: 107.5 IU/L
Activity [24]: Non-Toxic
Activity [26]: Non-Toxic
Activity [27]: 6.8 mmol/L
